Measured values reported in patent publication US5245034A, “Compound having vessel smooth muscle relaxation activity” (Hidaka; Kiroyoshi, priority 1988, dated 1993).

Test system: superior mesenteric artery (contracted by potassium chloride)
Assay: Vessel Smooth Muscle Relaxation Action (V.R.)
Type: cell-based, rabbit
Conditions: Oryctolagus cuniculus; concentration relaxing KCl-contracted strain to 50%; cumulative administration; read-out: V.R. (ED50)
Description: The specimen was suspended by loading a strain in Krebs-Henseleit solution through which an oxygen gas containing 5% carbon dioxide was bubbled. The specimen was contracted by adding potassium chloride to maintain a predetermined strain. Thereafter, a test compound was cumulatively administrated.

Q: For `CN(C(Cc1ccc(O)cc1)CN1CCC(O)CC1)S(=O)(=O)c1cccc2cnccc12` (stereo not shown) [Example 100], which EC50 is on record?
A: Its EC50 is 95 µM.

Q: `COc1ccc(CC(CN2CCC(O)CC2)N(C)S(=O)(=O)c2cccc3cnccc23)cc1` (stereo not shown) [Example 101] was tested. Which EC50 did it give?
A: The EC50 was 29 µM.

Q: With `CC(=O)Oc1ccc(CC(CN2CCC(OC(C)=O)CC2)N(C)S(=O)(=O)c2cccc3cnccc23)cc1` (stereo not shown) [Example 102, N-[1-(P-Acetoxybenzyl)-2-(4-Acetoxypiperidino)Ethyl]-N-Methyl-5-Isoquinolinesulfonamide] as the molecule, how does the EC50 read?
A: Its EC50 is 24 µM.

Q: Which EC50 does the source give for `O=C(OCc1ccccc1)N1CCCN(CC(Cc2ccc(O)cc2)NS(=O)(=O)c2cccc3cnccc23)CC1` (stereo not shown) [Example 116, N-{2-(4-benzyloxycarbonylhomopiperazinyl)-1-(p-hydroxybenzyl)ethyl}-5-isoquinolinesulfonamide] here?
A: The EC50 was 1.5 µM.

Q: For `COc1ccc(CC(NS(=O)(=O)c2cccc3cnccc23)C(=O)N2CCCN(C(=O)Cc3ccccc3)CC2)cc1` (stereo not shown) [Example 120, 1-[N-(5-Isoquinolinesulfonyl)-O-Methyl]Tyrosyl-4-Phenylacetylhomopiperazine], which EC50 is on record?
A: Its EC50 is 19 ± 3 µM.

Q: With `O=C([C@H](Cc1ccc(O)cc1)NS(=O)(=O)c1cccc2cnccc12)N1CCCN(CCCc2ccccc2)CC1` [Example 124, 1-[N-(5-Isoquinolinesulfonyl)Tyrosyl]-4-(3-Phenylpropyl)Homopiperazine] as the molecule, how does the EC50 read?
A: The EC50 was 11 µM.

Q: With `COc1ccc(N2CCN(CC(Cc3ccc(N4C(=O)c5ccccc5C4=O)cc3)NS(=O)(=O)c3cccc4cnccc34)CC2)cc1` (stereo not shown) [Example 125, N-{2-[4-(P-Methoxyphenyl)Piperazinyl]-1-(P-Phthalimidebenzyl)ethyl}-5-isoquinolinesulfonamide] as the molecule, how does the EC50 read?
A: Its EC50 is 9.2 µM.

Q: Which EC50 does the source give for `COc1ccc(N2CCN(CC(Cc3ccc(N)cc3)N(C)S(=O)(=O)c3cccc4cnccc34)CC2)cc1` (stereo not shown) [Example 128, N-{1-(p-aminobenzyl)-2-[4-(p-methoxyphenyl)piperazinyl]ethyl}-N-methyl-5-isoquinolinesulfonamide] here?
A: Its EC50 is 1.8 µM.

Q: With `COc1ccc(N2CCN(CC(Cc3ccc(NS(=O)(=O)c4cccc5cnccc45)cc3)N(C)S(=O)(=O)c3cccc4cnccc34)CC2)cc1` (stereo not shown) [Example 129, N-{1-[p-(5-isoquinolinesulfonylaminobenzyl)]-2-[4-(p-methoxyphenyl)piperazinyl]ethyl}-N-methyl-5-isoquinolinesulfonamide] as the molecule, how does the EC50 read?
A: The EC50 was 0.82 µM.

Q: With `COc1ccc(N2CCN(CC(Cc3ccc(NS(=O)(=O)c4cccc5cnccc45)cc3)NS(=O)(=O)c3cccc4cnccc34)CC2)cc1` (stereo not shown) [Example 130, N-{1-[p-(5-isoquinolinesulfonylaminobenzyl)]-2-[4-(p-methoxyphenyl]piperazinyl]ethyl}-5-isoquinolinesulfonamide] as the molecule, how does the EC50 read?
A: Its EC50 is 13 µM.

Q: `COc1ccc(N2CCN(CC(Cc3ccc(N(C)S(=O)(=O)c4cccc5cnccc45)cc3)N(C)S(=O)(=O)c3cccc4cnccc34)CC2)cc1` (stereo not shown) [Example 131, N-[[1-{P-[N-5-Isoquinolinesulfonyl)-N-(Methylamino)Benzyl]}-2-[4-(P-Methoxyphenylpiperazinyl]Ethyl]]-N-Methyl-5-Isoquinolinesulfonamide] was tested. Which EC50 did it give?
A: The EC50 was 1.5 µM.

Q: How did the EC50 turn out when `CN(c1ccccc1NCC=Cc1cccnc1)S(=O)(=O)c1cccc2cnccc12` [Example 146, N-{2-[3-(3-pyridyl)allylamino)phenyl}-N-methyl-5-isoquinolinesulfonamide] was run?
A: Its EC50 is 2.8 µM.

Q: `CC(C=Cc1ccc2c(c1)OCO2)NCCNS(=O)(=O)c1cccc2cnccc12` (stereo not shown) [Example 161] was tested. Which EC50 did it give?
A: The EC50 was 4.7 µM.

Q: For `CC(C=Cc1ccccn1)NCCNS(=O)(=O)c1cccc2cnccc12` (stereo not shown) [Example 162, N-{2-[1-Methyl-3-(2-Pyridyl)-2-Propenylamino]Ethyl}-5-Isoquinolinesulfonamide], which EC50 is on record?
A: The EC50 was 35 µM.

Q: With `CC(C=Cc1ccncc1)NCCNS(=O)(=O)c1cccc2cnccc12` (stereo not shown) [Example 163, N-{2-[1-Methyl-3-(4-Pyridyl)-2-Propenylamino]ethyl}-5-Isoquinolinesulfonylamide] as the molecule, how does the EC50 read?
A: Its EC50 is 31 µM.

Q: `CC(C=Cc1cccs1)NCCNS(=O)(=O)c1cccc2cnccc12` (stereo not shown) [Example 164, N-{2-[1-Methyl-3-(2-Thienyl)-2-Procenylamino]ethyl}-5-Isoquinolinesulfonamide] was tested. Which EC50 did it give?
A: The EC50 was 4.1 µM.
